Patent US11400054B2, “Method for treating an autoimmune neurological disease and/or neurodegenerative disease and pharmaceutical formulations for a liquid dosage form and a controlled release dosage form” (INDUSTRIAL TECHNOLOGY RESEARCH INSTITUTE, priority 2017, dated 2022)

Experiments:
[1] = system: MOG induced IL-2 secretion in splenocyte; assay: MOG induced IL-2 secretion in splenocyte isolated from mice of EAE model (ELISA); type: cell-based, C57BL/6 mice; settings: Mus musculus, 20 μg/ml MOG peptide, 48 hours; for inhibition at 300 µM: concentration 300 μM; for inhibition at 200 µM: concentration 200 μM; for inhibition at 100 µM: concentration 100 μM
Procedure: (§1) EAE was induced in C57BL/6 mice. The mice were immunized on Day 0 by subcutaneous injection with 200 μg of myelin oligodendrocyte glycoprotein (MOG) in […] containing 400 μg of heat-killed Mycobaterium tuberculosis H37Ra. Pertussis toxin (500 ng) was intraperitoneally injected on Day 0 and Day 2 after the mice were immunized with the emulsion. The mice were sacrifice on Day 30 post-immunization. Spleens of the mice were harvest and then splenocytes were isolated and cultured in presence or absence of the 20 μg/ml MOG peptide in 10% FBS RPMI1640 medium. Testing compound was added to the culture and maintained at 37° C. 5% CO2 for 48 hours. The concentrations of IFN-γ and IL-2 in the supernatant of the culture were determined by ELISA according to the manufacturer's instructions.

EAE induced mice [2] = assay: Therapeutic administration experiment in EAE induced mice, EAE score; type: in vivo, C57BL/6 mice; settings: 14 days after onset
[3] = system: MOG induced IFN-γ secretion in splenocyte; assay: MOG induced IFN-γ secretion in splenocyte isolated from mice of EAE model (ELISA); type: cell-based, C57BL/6 mice; settings: Mus musculus, 20 μg/ml MOG peptide, 48 hours; for inhibition at 300 µM: concentration 300 μM; for inhibition at 200 µM: concentration 200 μM; for inhibition at 100 µM: concentration 100 μM
Procedure: as §1

[4] = Cell viability of BV-2 cells (MTT); type: cell-based; settings: mouse, LPS 100 ng/mL
Procedure: (§2) BV-2 cells (8×10^3 cells/mL) were seeded in a 96-well plate cultured under 37° C., 5% CO2 overnight. The cells were divided into a naïve group (without any treatment), a control group (only treated with LPS) and experimental groups (treated with LPS and a testing compound).
(§3) The supernatant in the well was removed. After that, different concentrations of a testing compound was added to the cells to react with the cells for 1 hour (culture medium was added to the cells for a control group), and then LPS (100 ng/mL) was added to the cell.
Moreover, 50 μl of culturing medium containing MTT (0.5 mg/mL) was added to the cell part in the plate and cultured under 37° C. and 5% CO2 for 90 minutes, and then 150 μL DMSO was added to the plate and the plate was shaken for 5-10 minutes. Finally, OD570 was read by a continuous wavelength microplate analyzer, and cell viability was calculated using the following formula: Cell viability (%)=(OD value of the experimental group/OD value of the control group)×100.
(§4) CC50 value for cell viability of a testing compound and IC50 value for IL-6 expression of a testing compound were calculated based on cell viabilities at different concentrations of the testing compound and IL-6 expression amounts of the cells at different concentrations of the testing compound, respectively.

[5] = system: LPS-induced IL-6 expression in BV-2 cells; assay: LPS-induced IL-6 expression in BV-2 cells (IL-6 ELISA); type: cell-based; settings: Mus musculus, compound 1 hour then LPS 100 ng/mL, 24 hours
Procedure: as §2, §3
After reacting for 24 hours, the supernatant in the plate was taken and IL-6 expressing amount was detected by Mouse IL-6 ELISA Ready-SET-Go (Invitrogen; Cat. No. 88-7064-88) according to the manufacturer's recommended procedure.
as §4

[6] = system: spinal cords of the EAE induced mice; assay: Histology of spinal cord lesions in EAE induced mice (H&E, Luxol fast blue); type: in vivo, C57BL/6 mice; settings: 100 mg/kg three times a day, day 15 after onset
Procedure: The mice were euthanized at day 15 post to onset of EAE. Spinal cord was removed and fixed in 10% phosphate-buffered formaldehyde. Paraffin-embedded 3 μm-thick cross sections of spinal cord were stained with hematoxylin and eosin in order to confirm tissue lesion. Another slides were stained with Luxol fast blue for examination of demyelination. Lesions were evaluated based on demyelination, inflammation, axonal swelling and gliosis which are scored based on the criteria shown in Table 2: […]

EAE induced mice [7] = assay: Prophylaxis administration experiment in EAE induced mice, EAE score; type: in vivo, C57BL/6 mice; settings: 100 mg/kg one time a day from Day 7 after induction, 14 days; vs vehicle (FIG. 10)

Structure (SMILES) | inhibition at 200 µM [1] [%] | inhibition at 200 µM [3] [%] | CC50 at 24 h [4] [µM] | IC50 [5] [µM] | also measured
CC1=CCC(C(C)(C)O)CC1O (stereo not drawn) [SK0, (+)(−) trans-Sobrerol, reference compound] |  |  |  |  | inhibition at 300 µM [1]: 16%; EAE score (symptoms of EAE) (EAE induced mice [2]; 100 mg/kg one time a day, 15, 50, 100 mg/kg BID, vs vehicle (FIGS. 8A, 8B)): significantly alleviating symptoms of EAE; inhibition at 300 µM [3]: 10%
CC1=CC[C@H](C(C)(C)O)C[C@H]1O [SK1, (+) trans-Sobrerol] | 0 | 24 |  |  | 
CC1=CC[C@@H](C(C)(C)O)C[C@@H]1O [SK2, (−) trans-sobrerol] | 0 | 34 | > 200 | 183 ± 21.8 | EAE score (symptoms of EAE) (EAE induced mice [2]; 30, 100 mg/kg one time a day, 50, 100 mg/kg BID, 10-100 mg/kg TID, vs vehicle (FIGS. 5A-5C)): significantly alleviating symptoms of EAE; axonal swelling in spinal cords ([6]; vs vehicle (FIG. 7B)): effectively alleviating; inflammation in spinal cords ([6]; vs vehicle (FIG. 7C)): effectively alleviating; gliosis in spinal cords ([6]; vs vehicle (FIG. 7D)): effectively alleviating; demyelination in spinal cords ([6]; vs vehicle (FIGS. 6, 7A)): effectively alleviating; EAE score (symptoms of EAE) (EAE induced mice [7]): significantly alleviating symptoms of EAE
CC1=CC[C@@H](C(C)(C)O)C[C@@H]1OC(=O)CCc1ccccc1 [TMUS-0124-4c] | 23 | 78 | > 100 | 38.2 | 
CC1=CC[C@@H](C(C)(C)O)C[C@@H]1OC(=O)c1ccc([N+](=O)[O-])cc1 [TMUS-0124-4d] | 22 | 79 | > 100 | 48.1 | 
COc1ccc(C(=O)O[C@H]2C[C@H](C(C)(C)O)CC=C2C)cc1 [TMUS-0124-4e] |  |  | > 100 | 50.8 | inhibition at 100 µM [1]: 59%; inhibition at 100 µM [3]: 86%
CCCCCC(=O)O[C@H]1C[C@H](C(C)(C)O)CC=C1C [TMUS-0124-4f] | 8 | 59 | > 100 | 38 | 
CC1CCC(C(C)(C)O)CC1=O (stereo not shown) [TMUS-0503-H2] |  |  | > 100 | < 10 | inhibition at 100 µM [1]: 16%; inhibition at 100 µM [3]: 33%
C[C@H]1CC[C@H](C(C)(C)O)C[C@H]1O [TMUS-0503-H3] |  |  | > 100 | 30 to 100 | 
C[C@@H]1CC[C@H](C(C)(C)O)C[C@H]1O [TMUS-0503-H4] |  |  | > 100 | 30 to 100 | inhibition at 300 µM [1]: 19%; inhibition at 300 µM [3]: 42%
CC1=CC[C@@H](C(C)(C)O)C[C@@H]1OCc1ccccc1 [TMUS-0503-b1] |  |  | > 100 | < 10 | inhibition at 300 µM [1]: 15%; inhibition at 300 µM [3]: 20%
CC1=CCC2CC1OC2(C)C (stereo not shown) [TMUS-0503-c1] |  |  | > 100 | 30 to 100 | inhibition at 300 µM [1]: 22%; inhibition at 300 µM [3]: 23%
CC1(C)OC2CC1CC1OC21C (stereo not shown) [TMUS-0503-c2] |  |  | > 100 | 30 to 100 | inhibition at 100 µM [1]: 13%; inhibition at 100 µM [3]: 31%
CO[C@H]1C[C@H](C(C)(C)O)CC=C1C [TMUS-0503-m1] |  |  | > 100 | < 10 | inhibition at 100 µM [1]: 21%; inhibition at 100 µM [3]: 17%
CC1=CCC(C(C)(C)O)CC1=O (stereo not shown) [TMUS-0503-o1] | 40 | 56 | > 100 | < 10 | 
